Legend:
Format in all cases: cell-based
MTT assay, cytotoxicity = settings: African green monkey, CV-1 cells, read-out: LC50 Cytotoxicity
Description: The compounds of Examples 47-97 according to the present invention were tested for cytotoxicity using a MTT assay. MTT is a water-soluble yellow substance, but if it is introduced into living cells, it will be degenerated into a water-insoluble purple crystal due to dehydrogenase contained in mitochondria. If this substance is dissolved in dimethylsulfoxide and then measured for absorbance at 550 nm, cytotoxicity can be assayed. The test method is as follows.
CV-1 cells were first inoculated onto a 96-well plate at a concentration of 5,000 cells/well. The inoculated cells were cultured in a 5% carbon dioxide-containing humidified incubator at 37° C. for 24 hours, and then treated with the inventive compounds at various concentrations. After 24 hours of culture, a MTT reagent was added to the cultured cells. After 15 minutes of culture, the resulting purple crystal was dissolved in dimethylsulfoxide and then measured for absorbance using a microplate reader. From the measured absorbance, cytotoxicity was assayed.

PPARγ = target: T1, PPARγ (Homo sapiens, UniProt P37231); assay: Transfection assay (luciferase reporter) in CV-1 cells, PPARγ; settings: full-length PPAR plasmid, luciferase normalized with β-galactosidase
T1 construct: full-length PPARs plasmid DNA; expressed in transfected cells; host or cells: CV-1 cells
T1 sequence (P37231 1-505): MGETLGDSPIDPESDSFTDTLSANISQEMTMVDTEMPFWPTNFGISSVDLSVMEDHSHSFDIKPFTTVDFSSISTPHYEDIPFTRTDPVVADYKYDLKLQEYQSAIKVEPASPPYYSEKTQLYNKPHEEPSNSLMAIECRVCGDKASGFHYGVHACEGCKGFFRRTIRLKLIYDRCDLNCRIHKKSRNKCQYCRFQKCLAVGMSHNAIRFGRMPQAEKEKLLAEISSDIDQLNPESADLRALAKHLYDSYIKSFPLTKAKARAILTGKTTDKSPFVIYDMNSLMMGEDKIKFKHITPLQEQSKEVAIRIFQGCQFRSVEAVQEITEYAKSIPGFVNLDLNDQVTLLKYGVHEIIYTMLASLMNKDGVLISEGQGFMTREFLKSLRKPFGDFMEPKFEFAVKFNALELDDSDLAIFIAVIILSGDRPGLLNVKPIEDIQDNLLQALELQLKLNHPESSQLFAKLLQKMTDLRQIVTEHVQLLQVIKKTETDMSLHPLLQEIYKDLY
Description: (§1) The compounds prepared in Examples were tested for PPARδ activity by a transfection assay. In addition, the compounds were tested for selectivity for PPARα and PPARγ, the subtypes of PPARs, and also tested for toxicity by a MTT assay.
(§2) A transfection assay was performed using CV-1 cells. The culture of the cells was performed using a DMEM medium (10% FBS, DBS (delipidated) and 1% penicillin/streptomycin) on a 96-well plate in a 5% carbon dioxide-containing incubator at 37° C. […] Specifically, CV-1 cells were inoculated onto a 96-well plate at a concentration of 5,000 cells/well, and after 24 hours, the cells were transfected. In the cell transfection, full-length PPARs plasmid DNA, reporter DNA that has luciferase activity and thus allows the identification of PPARs, and β-galactosidase DNA that provides the information of transfection efficiency, were used as transfection reagents. Each of the compounds developed in the present invention was dissolved in dimethylsulfoxide (DMSO) and transfected into the cells at various concentrations using media. The cells were cultured in an incubator for 24 and then lysed with lysis buffer. The lysed cells were measured for luciferase and β-galactosidase activities using a luminometer and a microplate reader. The measured luciferase values were normalized with the β-galactosidase values and graphed. From the graph, EC50 values were determined.

PPARα = target: T2, PPARα (Homo sapiens, UniProt Q07869); assay: Transfection assay (luciferase reporter) in CV-1 cells, PPARα; settings: full-length PPAR plasmid, luciferase normalized with β-galactosidase
T2 construct: full-length PPARs plasmid DNA; expressed in transfected cells; host or cells: CV-1 cells
T2 sequence (Q07869 1-468): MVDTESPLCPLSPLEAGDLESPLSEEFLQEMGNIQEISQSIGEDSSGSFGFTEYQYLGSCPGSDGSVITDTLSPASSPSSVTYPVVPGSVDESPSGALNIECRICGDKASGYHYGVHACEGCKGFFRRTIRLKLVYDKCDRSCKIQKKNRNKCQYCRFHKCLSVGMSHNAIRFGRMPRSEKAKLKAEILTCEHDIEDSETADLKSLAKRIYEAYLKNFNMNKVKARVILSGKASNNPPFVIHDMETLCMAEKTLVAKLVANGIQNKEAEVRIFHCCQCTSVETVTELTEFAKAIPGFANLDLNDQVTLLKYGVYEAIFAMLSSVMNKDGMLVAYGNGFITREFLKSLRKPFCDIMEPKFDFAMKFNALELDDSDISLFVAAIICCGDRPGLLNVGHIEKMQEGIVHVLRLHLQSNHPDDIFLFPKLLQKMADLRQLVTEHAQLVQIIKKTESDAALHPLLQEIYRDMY
Description: as §1
A transfection assay was performed using CV-1 cells. The culture of the cells was performed using a DMEM medium (10% FBS, DBS (delipidated) and 1% penicillin/streptomycin) on a 96-well plate in a 5% carbon dioxide-containing incubator at 37° C. The test was performed in four steps consisting of cell inoculation, transfection, treatment of the compounds, and analysis of results. Specifically, CV-1 cells were inoculated onto a 96-well plate at a concentration of 5,000 cells/well, and after 24 hours, the cells were transfected. In the cell transfection, full-length PPARs plasmid DNA, reporter DNA that has luciferase activity and thus allows the identification of PPARs, and β-galactosidase DNA that provides the information of transfection efficiency, were used as transfection reagents. Each of the compounds developed in the present invention was dissolved in dimethylsulfoxide (DMSO) and transfected into the cells at various concentrations using media. The cells were cultured in an incubator for 24 and then lysed with lysis buffer. The lysed cells were measured for luciferase and β-galactosidase activities using a luminometer and a microplate reader. The measured luciferase values were normalized with the β-galactosidase values and graphed. From the graph, EC50 values were determined.

PPARδ = target: T3, PPARδ (Homo sapiens, UniProt Q03181); assay: Transfection assay (luciferase reporter) in CV-1 cells, PPARδ; design: full-length PPARs plasmid DNA; expressed in transfected cells; host or cells: CV-1 cells; settings: full-length PPAR plasmid, luciferase normalized with β-galactosidase
T3 sequence (Q03181 1-441): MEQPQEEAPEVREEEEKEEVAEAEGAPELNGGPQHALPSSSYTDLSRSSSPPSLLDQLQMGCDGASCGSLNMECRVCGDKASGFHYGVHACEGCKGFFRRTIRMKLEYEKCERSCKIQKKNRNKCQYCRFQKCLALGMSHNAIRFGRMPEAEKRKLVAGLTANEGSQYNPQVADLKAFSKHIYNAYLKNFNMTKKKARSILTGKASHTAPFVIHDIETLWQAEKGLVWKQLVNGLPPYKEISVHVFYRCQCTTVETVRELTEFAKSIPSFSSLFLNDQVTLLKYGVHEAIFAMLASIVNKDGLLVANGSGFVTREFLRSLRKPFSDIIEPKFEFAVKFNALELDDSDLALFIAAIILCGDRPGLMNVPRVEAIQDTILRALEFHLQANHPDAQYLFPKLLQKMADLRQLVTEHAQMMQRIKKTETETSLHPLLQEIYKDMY
Description: as §1, §2

Row | SMILES | CC50 at 24 h (MTT assay, cytotoxicity) [µM] | EC50 PPARγ (PPARγ) | EC50 PPARα (PPARα) | EC50 (PPARδ) [µM]
1 | Cc1cc(SC(Cc2c(F)cccc2F)c2sc(-c3ccc(C(F)(F)F)c(F)c3)nc2C)ccc1OCC(=O)O (stereo not shown) [Example 94, 2-[4-[1-[2-[3-fluoro-4-(trifluoromethyl)phenyl]-4-methylthiazol-5-yl]-2-(2,6-difluorophenyl)ethylthio]-2-methylphenoxy]acetic acid] | > 10 | ia | ia | 0.0009
2 | CCOC(=O)COc1ccc(SC(Cc2c(F)cccc2Cl)c2sc(-c3ccc(C(F)(F)F)cc3)nc2C)cc1C (stereo not shown) [Example 47] | > 100 | ia | ia | 0.0065
3 | Cc1cc(SC(Cc2c(F)c(F)c(F)c(F)c2F)c2sc(-c3ccc(C(F)(F)F)cc3)nc2C)ccc1OCC(=O)O (stereo not shown) [Example 80, 2-[4-[1-[2-[4-(trifluoromethyl)phenyl]-4-methylthiazol-5-yl]-2-(perfluorophenyl)ethylthio]-2-methylphenoxy]acetic acid] | > 100 | – | ia | 0.0464
4 | Cc1cc(SC(Cc2c(Cl)cccc2Cl)c2sc(-c3ccc(C(F)(F)F)c(F)c3)nc2C)ccc1OCC(=O)O (stereo not shown) [Example 95, 2-[4-[2-(2,6-dichlorophenyl)-1-[2-[3-fluoro-4-(trifluoromethyl)phenyl]-4-methylthiazol-5-yl]ethylthio]-2-methylphenoxy]acetic acid] | > 10 | ia | ia | 0.0023
5 | Cc1cc(SC(CCCCCCCCCCc2ccccc2)c2sc(-c3ccc(C(F)(F)F)cc3)nc2C)ccc1OCC(=O)O (stereo not shown) [Example 74, 2-[4-[1-[2-[4-(trifluoromethyl)phenyl]-4-methylthiazol-5-yl]-11-phenylundecylthio]-2-methylphenoxy]acetic acid] | > 100 | ia | ia | 0.132
6 | Cc1cc(SC(Cc2ccc(F)cc2F)c2sc(-c3ccc(C(F)(F)F)cc3)nc2C)ccc1OCC(=O)O (stereo not shown) [Example 85, 2-[4-[1-[2-[4-(trifluoromethyl)phenyl]-4-methylthiazol-5-yl]-2-(2,4-difluorophenyl)ethylthio]-2-methylphenoxy]acetic acid] | > 100 | ia | ia | 0.0034
7 | Cc1cc(SC(CCCCc2ccccc2)c2sc(-c3ccc(C(F)(F)F)cc3)nc2C)ccc1OCC(=O)O (stereo not shown) [Example 71, 2-[4-[1-[2-[4-(trifluoromethyl)phenyl]-4-methylthiazol-5-yl]-5-phenylpentylthio]-2-methylphenoxy]acetic acid] | 93 | ia | ia | 0.0388
8 | Cc1cc(SC(CCCc2ccccc2)c2sc(-c3ccc(C(F)(F)F)cc3)nc2C)ccc1OCC(=O)O (stereo not shown) [Example 70, 2-[4-[1-[2-[4-(trifluoromethyl)phenyl]-4-methylthiazol-5-yl]-4-phenylbutylthio]-2-methylphenoxy]acetic acid] | 91 | ia | ia | 0.0061
9 | Cc1cc(SC(Cc2cc(F)ccc2Cl)c2sc(-c3ccc(C(F)(F)F)cc3)nc2C)ccc1OCC(=O)O (stereo not shown) [Example 86, 2-[4-[2-(2-chloro-5-fluorophenyl)-1-[2-[4-(trifluoromethyl)phenyl]-4-methylthiazol-5-yl]ethylthio]-2-methylphenoxy]acetic acid] | > 100 | ia | ia | 0.0087
10 | Cc1cc(SC(CCCCCCCc2ccccc2)c2sc(-c3ccc(C(F)(F)F)cc3)nc2C)ccc1OCC(=O)O (stereo not shown) [Example 73, 2-[4-[1-[2-[4-(trifluoromethyl)phenyl]-4-methylthiazol-5-yl]-8-phenyloctylthio]-2-methylphenoxy]acetic acid] | 94 | ia | ia | 0.0572
11 | Cc1cc(SC(Cc2cc(F)ccc2Cl)c2sc(-c3ccc(C(F)(F)F)c(F)c3)nc2C)ccc1OCC(=O)O (stereo not shown) [Example 97, 2-[4-[2-(2-chloro-5-fluorophenyl)-1-[2-[3-fluoro-4-(trifluoromethyl)phenyl]-4-methylthiazol-5-yl]ethylthio]-2-methylphenoxy]acetic acid] | > 30 | ia | ia | 0.0174
12 | Cc1cc(SC(Cc2c(F)cccc2C(F)(F)F)c2sc(-c3ccc(C(F)(F)F)cc3)nc2C)ccc1OCC(=O)O (stereo not shown) [Example 82, 2-[4-[2-[2-fluoro-6-(trifluoromethyl)phenyl]-1-[2-[4-(trifluoromethyl)phenyl]-4-methylthiazol-5-yl]ethylthio]-2-methylphenoxy]acetic acid] | > 100 | – | ia | 0.0026
13 | Cc1cc(SC(Cc2ccc(Br)cc2)c2sc(-c3ccc(C(F)(F)F)cc3)nc2C)ccc1OCC(=O)O (stereo not shown) [Example 81, 2-[4-[2-(4-bromophenyl)-1-[2-[4-(trifluoromethyl)phenyl]-4-methylthiazol-5-yl]ethylthio]-2-methylphenoxy]acetic acid] | 92 | ia | – | 0.0115

From patent publication US20090054493A1, “THIAZOLE DERIVATIVES AS PPAR DELTA LIGANDS AND THEIR MANUFACTURING PROCESS” (priority 2005, published 2009)
